Patent publication US7863449B2, “Modulators of muscarinic receptors” (Vertex Pharmaceuticals Incorporated, priority 2004, dated 2011)
Structures can show the parent of a compound that is named as a salt.

How the values were obtained:
[1] = molecular target: T1, M1 muscarinic receptor (Homo sapiens, UniProt P11229); assay: Functional mobilization of intracellular calcium (FLIPR), M1-CHO cells; assay type: cell-based; details: for Emax: 100% efficacy is the maximum response obtained using Carbachol as a control; for M1 Activity: M1-CHO cells, FLIPR calcium mobilization
T1 construct: expressed in transfected cells; host or cells: CHO (M1-CHO)
T1 sequence (P11229 1-460): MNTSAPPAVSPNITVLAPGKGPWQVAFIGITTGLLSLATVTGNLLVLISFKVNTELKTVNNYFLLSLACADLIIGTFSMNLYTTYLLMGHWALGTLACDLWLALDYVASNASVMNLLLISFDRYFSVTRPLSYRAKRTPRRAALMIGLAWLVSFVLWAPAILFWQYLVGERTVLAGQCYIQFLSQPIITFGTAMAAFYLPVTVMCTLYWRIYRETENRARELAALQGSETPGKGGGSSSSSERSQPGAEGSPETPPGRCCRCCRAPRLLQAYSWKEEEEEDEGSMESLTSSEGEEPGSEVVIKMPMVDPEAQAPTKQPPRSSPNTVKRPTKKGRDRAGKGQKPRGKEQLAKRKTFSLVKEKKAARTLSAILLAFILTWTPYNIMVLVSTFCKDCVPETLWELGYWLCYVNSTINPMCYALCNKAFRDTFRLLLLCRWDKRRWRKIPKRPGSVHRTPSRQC
Procedure, shortened: (§1)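 Calcium flux recorded 60 s (ex 488, em 540 nm) in dye-loaded M1- or M4-CHO cells in pH 7.4 buffer with 1 mM probenecid. Inhibition measured against carbachol EC80 after 15 min compound pre-incubation or co-addition; agonism measured by compound addition alone. Final DMSO 0.5%.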

[2] = molecular target: T2, M4 muscarinic receptor (Homo sapiens, UniProt P08173); assay: Functional mobilization of intracellular calcium (FLIPR), M4-CHO cells; assay type: cell-based; details: for Emax: 100% efficacy is the maximum response obtained using Carbachol as a control; for M4 Activity: M4-CHO cells, FLIPR calcium mobilization
T2 construct: expressed in transfected cells; host or cells: CHO (M4-CHO)
T2 sequence (P08173 1-479): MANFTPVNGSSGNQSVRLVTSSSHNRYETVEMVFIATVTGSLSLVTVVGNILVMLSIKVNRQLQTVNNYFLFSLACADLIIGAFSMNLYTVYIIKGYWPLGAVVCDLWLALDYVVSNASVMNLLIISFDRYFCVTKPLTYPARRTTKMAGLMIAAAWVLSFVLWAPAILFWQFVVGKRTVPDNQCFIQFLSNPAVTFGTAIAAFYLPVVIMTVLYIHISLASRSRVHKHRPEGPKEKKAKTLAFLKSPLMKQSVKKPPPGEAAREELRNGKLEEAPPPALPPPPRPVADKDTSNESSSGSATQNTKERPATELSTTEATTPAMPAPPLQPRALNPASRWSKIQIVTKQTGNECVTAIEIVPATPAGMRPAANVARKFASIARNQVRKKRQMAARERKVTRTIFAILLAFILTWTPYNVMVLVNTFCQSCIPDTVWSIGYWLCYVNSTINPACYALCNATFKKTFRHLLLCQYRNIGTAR
Procedure, shortened: as §1

| Structure (SMILES) | Emax [1] [%] | M1 Activity [1] | Emax [2] [%] | M4 Activity [2] |
| --- | --- | --- | --- | --- |
| COc1ccc(CN2CCC3(CC2)CN(C(C)=O)Cc2ccccc23)cc1 [compound 66] | < 25 | + (activity was measured to be greater than 5.0 μM) | < 25 | + (activity was measured to be greater than 5.0 μM) |
| CCOC(=O)N1C2CCC1CC(N1CCC3(CC1)CN(S(=O)(=O)c1sc(NC(C)=O)nc1C)Cc1ccccc13)C2 (centres unmarked) [compound 200] | 25 to 100 | +++ (activity was measured to be less than 1.0 μM) | 25 to 100 | +++ (activity was measured to be less than 1.0 μM) |
| CCCC1CCC(N2CCC3(CC2)CN(C(C)=O)Cc2ccccc23)CC1 (centres unmarked) [compound 326] | 25 to 100 | +++ (activity was measured to be less than 1.0 μM) | 25 to 100 | +++ (activity was measured to be less than 1.0 μM) |
| CC(=O)N1Cc2ccccc2C2(CCN(CC3CCCCC3)CC2)C1 [compound 35] | < 25 | + (activity was measured to be greater than 5.0 μM) | < 25 | ++ (activity was measured to be from 1.0 μM to 5.0 μM) |
| CCOC(=O)N1C2CCC1CC(N1CCC3(CC1)CN(S(=O)(=O)Cc1ccccc1)Cc1ccccc13)C2 (centres unmarked) [compound 218] | 25 to 100 | +++ (activity was measured to be less than 1.0 μM) | 25 to 100 | +++ (activity was measured to be less than 1.0 μM) |
| CC(=O)N1Cc2ccccc2C2(CCN(Cc3ccoc3)CC2)C1 [compound 139] | < 25 | + (activity was measured to be greater than 5.0 μM) | < 25 | + (activity was measured to be greater than 5.0 μM) |
| CSC(C)CCN1CCC2(CC1)NC(=O)c1ccccc12 (centres unmarked) [compound 323] | < 25 | + (activity was measured to be greater than 5.0 μM) | < 25 | + (activity was measured to be greater than 5.0 μM) |
| CC(=O)N1Cc2ccccc2C2(CCN(Cc3ccccn3)CC2)C1 [compound 40] | < 25 | + (activity was measured to be greater than 5.0 μM) | < 25 | + (activity was measured to be greater than 5.0 μM) |
| CCOCCN1CCC2(CC1)CN(C(C)=O)Cc1ccccc12 [compound 256] | < 25 |  | < 25 |  |
| CCOC(=O)N1C2CCC1CC(N1CCC3(CC1)CN(C(=O)NC1CCCCC1)Cc1ccccc13)C2 (centres unmarked) [compound 358] | 25 to 100 | +++ (activity was measured to be less than 1.0 μM) | 25 to 100 | +++ (activity was measured to be less than 1.0 μM) |
| CC(C)(C)CCN1CCC2(CC1)NC(=O)c1ccccc12 [compound 346] | 25 to 100 | ++ (activity was measured to be from 1.0 μM to 5.0 μM) | 25 to 100 | ++ (activity was measured to be from 1.0 μM to 5.0 μM) |
| CCOC(=O)N1CCC(N2CCC3(CC2)OC(=O)c2ccccc23)CC1 [compound 314, ethyl 4-(3-oxo-3H-spiro[isobenzofuran-1,4′-piperidine]-1′-yl)piperidine-1-carboxylate] | 25 to 100 | +++ (activity was measured to be less than 1.0 μM) | 25 to 100 | +++ (activity was measured to be less than 1.0 μM) |
| O=C1c2ccccc2C2(CCN(C3CCCCCC3)CC2)N1Cc1ccccc1 [compound 347] | 25 to 100 | + (activity was measured to be greater than 5.0 μM) | < 25 | + (activity was measured to be greater than 5.0 μM) |
| CCOC(=O)N1C2CCC1CC(N1CCC3(CC1)CN(C(C)=O)Cc1ccccc13)C2 (centres unmarked) [compound 197, ethyl 3-(2-acetyl-2,3-dihydro-1H-spiro[isoquinoline-4,4′-piperidine]-1′-yl)-8-azabicyclo[3.2.1]octane-8-carboxylate] | 25 to 100 | +++ (activity was measured to be less than 1.0 μM) | 25 to 100 | +++ (activity was measured to be less than 1.0 μM) |
| CCCC(=O)N1Cc2ccccc2C2(CCN(CC3CCN(C(=O)OCC)CC3)CC2)C1 [compound 184] | 25 to 100 | +++ (activity was measured to be less than 1.0 μM) | 25 to 100 | +++ (activity was measured to be less than 1.0 μM) |
| CCOC(=O)N1CCC(CN2CCC3(CC2)CN(C(=O)c2ccccc2)Cc2ccccc23)CC1 [compound 147, Ethyl 4-((2-benzoyl-2,3-dihydro-1H-spiro[isoquinoline-4,4′-piperidine]-1′-yl)methyl)piperidine-1-carboxylate hydrochloride] | 25 to 100 | +++ (activity was measured to be less than 1.0 μM) | 25 to 100 | +++ (activity was measured to be less than 1.0 μM) |
| CCOC(=O)C1CCC(N2CCC3(CC2)CN(C(C)=O)Cc2ccccc23)CC1 (centres unmarked) [compound 68] | 25 to 100 | +++ (activity was measured to be less than 1.0 μM) | 25 to 100 | +++ (activity was measured to be less than 1.0 μM) |
| CCOC(=O)N1C2CCC1CC(N1CCC3(CC1)CN(C(=O)c1cccnc1)Cc1ccccc13)C2 (centres unmarked) [compound 17] | 25 to 100 | +++ (activity was measured to be less than 1.0 μM) | 25 to 100 | +++ (activity was measured to be less than 1.0 μM) |
| COc1ccccc1CN1CCC2(CC1)CN(C(C)=O)Cc1ccccc12 [compound 150] | < 25 | + (activity was measured to be greater than 5.0 μM) | < 25 | + (activity was measured to be greater than 5.0 μM) |
| O=C(c1ccccc1)N1CCC(N2CCC3(CC2)c2ccccc2C(=O)N3Cc2ccccc2)CC1 [compound 42] | < 25 | + (activity was measured to be greater than 5.0 μM) | < 25 | + (activity was measured to be greater than 5.0 μM) |
| COCCOC(=O)N1Cc2ccccc2C2(CCN(C3CC4CCC(C3)N4C(=O)O[C@@H]3CCOC3)CC2)C1 (some centres unmarked) [compound 138] | 25 to 100 | +++ (activity was measured to be less than 1.0 μM) | 25 to 100 | +++ (activity was measured to be less than 1.0 μM) |
| CCOC(=O)N1CCC(N2CCC3(CC2)CN(C(=O)C(C)C)Cc2ccccc23)CC1 [compound 279] | 25 to 100 | +++ (activity was measured to be less than 1.0 μM) | 25 to 100 | +++ (activity was measured to be less than 1.0 μM) |
| CCOC(=O)N1CCC(N2CCC3(CC2)CN(S(=O)(=O)c2c(C)noc2C)Cc2ccccc23)CC1 [compound 25] | 25 to 100 | +++ (activity was measured to be less than 1.0 μM) | 25 to 100 | +++ (activity was measured to be less than 1.0 μM) |
| COC(=O)c1ccccc1CN1CCC2(CC1)CN(C(C)=O)Cc1ccccc12 [compound 118] | < 25 | + (activity was measured to be greater than 5.0 μM) | < 25 | + (activity was measured to be greater than 5.0 μM) |
| COc1ccc(CN2CCC3(CC2)CN(C(C)=O)Cc2ccccc23)cc1F [compound 107] | < 25 | + (activity was measured to be greater than 5.0 μM) | < 25 | + (activity was measured to be greater than 5.0 μM) |
| CC(=O)c1ccc(CN2CCC3(CC2)CN(C(C)=O)Cc2ccccc23)cc1 [compound 144] | 25 to 100 | + (activity was measured to be greater than 5.0 μM) | < 25 | + (activity was measured to be greater than 5.0 μM) |
| CC(=O)N1Cc2ccccc2C2(CCN(Cc3cc(C)c(C)o3)CC2)C1 [compound 101] | < 25 | + (activity was measured to be greater than 5.0 μM) | < 25 | + (activity was measured to be greater than 5.0 μM) |
| CCOC(=O)N1CCC(N2CCC3(CC2)OC(=O)c2ccc(C)cc23)CC1 [compound 277] | 25 to 100 | +++ (activity was measured to be less than 1.0 μM) | 25 to 100 | +++ (activity was measured to be less than 1.0 μM) |
